Biological target: T1, CYP2C8 (Homo sapiens, UniProt P10632)
T1 sequence (P10632 1-490): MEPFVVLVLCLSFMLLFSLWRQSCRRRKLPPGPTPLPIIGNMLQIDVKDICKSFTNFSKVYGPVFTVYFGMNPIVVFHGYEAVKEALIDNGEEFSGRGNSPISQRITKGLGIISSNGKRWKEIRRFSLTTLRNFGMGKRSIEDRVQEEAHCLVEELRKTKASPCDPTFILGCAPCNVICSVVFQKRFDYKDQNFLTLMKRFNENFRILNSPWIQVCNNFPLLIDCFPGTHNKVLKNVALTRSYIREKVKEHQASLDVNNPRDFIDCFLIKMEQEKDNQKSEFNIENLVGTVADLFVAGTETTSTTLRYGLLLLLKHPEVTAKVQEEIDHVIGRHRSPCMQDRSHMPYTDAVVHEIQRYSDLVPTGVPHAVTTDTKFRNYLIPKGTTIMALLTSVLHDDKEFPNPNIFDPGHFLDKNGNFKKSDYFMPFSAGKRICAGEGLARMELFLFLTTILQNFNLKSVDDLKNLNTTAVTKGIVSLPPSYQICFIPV
Assay: Inhibition of CYP2C8-catalyzed amodiaquine N-deethylation in pooled human liver microsomes
Assay type: in vitro ADME
Set-up: incubation mixtures containing pooled human liver microsomes (HLMs, XTreme 200, XenoTech); tissue XenoTech XTreme 200; host or cells: pooled human liver microsomes
Settings: for Ki: amodiaquine 0.1, 0.4, 1 µM, average ± standard error, triplicate; for IC50: substrate amodiaquine 1 µM, read-out: IC50, P450 2C8; for IC50 / inhibition at 10 min, 0.5 µM: pooled HLMs 0.25 mg/mL; for inhibition at 10 min, 0.5 µM: inhibitor 0.5 μM
Method: The inhibitory potential of the five biflavonoids on the metabolism of nine P450 probe substrates was evaluated using previously developed methods with minor modifications. Biflavonoids were dissolved in methanol. The final concentration of methanol in the incubation mixture was 1.0% (v/v). We used these P450 probe substrates: phenacetin for CYP1A2, coumarin for CYP2A6, bupropion for CYP2B6, amodiaquine for CYP2C8, diclofenac for CYP2C9, omeprazole for CYP2C19, dextromethorphan for CYP2D6, chlorzoxazone for CYP2E1 and midazolam for CYP3A (Table 1). The incubation mixtures containing pooled human liver microsomes (HLMs, XTreme 200, XenoTech), P450 probe substrates, and inhibitor (0~20 µM) were pre-incubated at 37 °C for 5 min. The concentration range of the inhibitor varied (0, 0.002, 0.005, 0.02, 0.05, and 0.2 µM for CYP2C8; 0, 0.02, 0.05, 0.2, 0.5, and 2 µM for CYP2C9; 0, 0.5, 2, 5, 10, and 20 µM for other P450 isoforms). After pre-incubation, a reduced nicotinamide adenine dinucleotide phosphate (NADPH) generation system containing 1 unit/ml G6PDH, 1.3 mM β- nicotinamide adenine dinucleotide phosphate (β- NADP^+), 3.3 mM MgCl2, and 3.3 mM G6P was added to initiate a reaction, and further incubated for 10 min at 37 °C. The reaction was stopped by adding 50 μL of ice-cold acetonitrile containing 7 nM trimipramine (internal standard, IS). After centrifugation at 18,000 g (5 min, 4 °C), aliquots of supernatants were analyzed by LC–MS/MS (Shimadzu LCMS 8060 system, Shimadzu, Kyoto, Japan). All microsomal incubations were conducted in triplicate.
The other conditions were the same as in the cytochrome P450 inhibition study.
We used HLMs to determine the mechanisms and constants (Ki values) for selamariscina A inhibition of CYP1A2, CYP2B6, CYP2C8, CYP2C9 and CYP3A. The selamariscina A (0~50 μM) was added into the reaction mixtures, each of which contained concentrations of phenacetin (20, 50, and 100 μM), bupropion (20, 50, and 100 μM), amodiaquine (0.1, 0.4, and 1 μM), rosiglitazone (2, 5, and 10 μM), diclofenac (1, 4, and 10 μM), tolbutamide (50, 100, and 200 μM), and midazolam (0.5, 2, and 5 μM). The substrates were used at concentrations approximately near to their respective Km values. The concentration range of selamariscina A varied (0, 0.002, 0.005, 0.02, 0.05, and 0.2 μM for CYP2C8; 0, […], 0.02, 0.05, 0.2, and 0.5 μM for CYP2C9; 0, 0.2, 0.5, 2, 5, and 20 µM for CYP3A; 0, 0.5, 2, 5, 20, and 50 μM for CYP1A2 and CYP2B6). The other conditions were the same as in the cytochrome P450 inhibition study.
All metabolites and the IS were separated on a Kinetex XB-C18 column (100 × 2.10 mm, 2.6 μm, 100 Å; Phenomenex, Torrance, CA, USA) and analyzed using a Shimadzu LCMS 8060 triple-quadrupole mass spectrometer coupled with a Nexera X2 ultra high-performance liquid chromatography system (Shimadzu, Kyoto, Japan) equipped with an electrospray ionization interface. The mobile phase consisted of 0.1% formic acid in water (A) and 0.1% formic acid in acetonitrile (B). The elution condition was set as 8% B (0–0.5 min), 8%→60% B (0.5–5 min), 60% B (5–6 min), 60%→8% B (6–6.1 min) and 8% B (6.1–9 min) for the analysis of metabolites of P450 probe substrates and set as 0%→40% B (0–1 min), 40%→50% B (1–5 min), 50%→0% B (5–5.1 min), and 0% B (5.1–8 min) for the analysis of metabolites of UGT probe substrates. The flow rate was 0.2 mL/min. Electrospray ionization was performed in positive-ion mode at 4000 V or in negative-ion mode at −3500 V. The optimum operating conditions were determined as follows: vaporizer temperature, 300 °C; capillary temperature, 350 °C; collision gas (argon) pressure, 1.5 mTorr. Quantitation was conducted in selected reaction monitoring (SRM) modes with the precursor-to-product ion transition for each metabolite (Table 1 and Table 2).
We analyzed the data with Shimadzu LabSolution LC–MS software. The IC50 values were calculated by WinNonlin software (Pharsight, Mountain View, CA, USA).

[1] = human, pooled human liver microsomes, probe amodiaquine

| Mode of Inhibition, CYP2C8 amodiaquine (HLMs) | Ki (HLMs) | IC50 | Times stronger CYP2C8 inhibitory potential than amentoflavone | Structure (SMILES) | Times weaker CYP2C8 inhibition than selamariscina A (IC50 comparison at 0.25 mg/mL microsomal protein) | inhibition at 10 min, 0.5 µM [1] | inhibition at 10 min, 5 µM (human, pooled human liver microsomes, probe amodiaquine, inhibitor 5 μM, HLMs) |
| --- | --- | --- | --- | --- | --- | --- | --- |
| Noncompetitive | 103 ± 17 nM | 83 nM |  | O=c1cc(-c2ccc(O)cc2)oc2c(-c3c(O)cc(O)c4c(=O)cc(-c5ccc(O)cc5)oc34)c(O)cc(O)c12 [cupressuflavone] |  |  |  |
|  |  |  |  | CC(C)(O)c1ccccc1CC[C@@H](SCC1(CC(=O)O)CC1)c1cccc(/C=C/c2ccc3ccc(Cl)cc3n2)c1 [montelukast, reference compound] | more than 25 times | 52.7% | 86.1% |
| Noncompetitive | 84 ± 16 nM | 83 nM |  | O=c1cc(-c2ccc(O)c(-c3c(O)cc4oc(-c5ccc(O)cc5)cc(=O)c4c3O)c2)oc2cc(O)cc(O)c12 [robustaflavone] |  |  |  |
| Noncompetitive | 18 ± 2 nM | 19 nM | more than 4.5 times | O=C1CC(c2cc(-c3c(O)ccc4c(=O)cc(-c5ccc(O)cc5)oc34)c(O)cc2O)Oc2cc(O)cc(O)c21 (centres unmarked) [selamariscina A] |  | 92.8% |  |
| Noncompetitive | 142 ± 26 nM | 120 nM |  | O=c1cc(-c2ccc(O)c(-c3c(-c4ccc(O)cc4)oc4cc(O)cc(O)c4c3=O)c2)oc2cc(O)cc(O)c12 [taiwaniaflavone] |  |  |  |

| Structure (SMILES) | Mode of Inhibition, CYP2C8 amodiaquine (HLMs) | Ki (HLMs) | IC50 | Times stronger CYP2C8 inhibitory potential than amentoflavone | Times weaker CYP2C8 inhibition than selamariscina A (IC50 comparison at 0.25 mg/mL microsomal protein) | inhibition at 10 min, 0.5 µM [1] | inhibition at 10 min, 5 µM (human, pooled human liver microsomes, probe amodiaquine, inhibitor 5 μM, HLMs) |
| --- | --- | --- | --- | --- | --- | --- | --- |
| O=c1cc(-c2ccc(O)c(-c3c(O)cc(O)c4c(=O)cc(-c5ccc(O)cc5)oc34)c2)oc2cc(O)cc(O)c12 [amentoflavone] | Noncompetitive | 83 ± 9 nM | 84 nM |  |  |  |  |
